Experimental data from US20250230193A1, “CYCLIC COMPOUND HAVING SELECTIVE KRAS INHIBITORY EFFECT ON HRAS AND NRAS” (CHUGAI SEIYAKU KABUSHIKI KAISHA, priority 2022, published 2025).
Where a SMILES comes first, the peptide text is derived from it. Bridges are numbered along the chain shown (N, C = ends). [ ]: non-standard residue; d: D form. The star is where a group is joined. hPhe(3,5-F2-4-CF3) = N[C@@H](CCc1cc(F)c(C(F)(F)F)c(F)c1)C(=O)O; NPrPhe(4-CF3) = CCCN[C@@H](Cc1ccc(C(F)(F)F)cc1)C(=O)O; NMeGly(cPent) = CN[C@H](C(=O)O)C1CCCC1; NMeD = CN[C@@H](CC(=O)O)C(=O)O; Ac4c(3-oxa) = NC1(C(=O)O)COC1; NMeL = CN[C@@H](CC(C)C)C(=O)O; Morpholide = C1CN(*)CCO1; Aze = O=C(O)[C@@H]1CCN1; Sar = CNCC(=O)O

Legend:
[1] = molecular target: GDP-bound HRAS wild-type protein (Homo sapiens, UniProt P01112); test: Binding to HRAS by surface plasmon resonance (SPR), Single Cycle Kinetics; details: for HRAS/KRAS (ratio of KD value with respect to HRAS to KD value with respect to KRAS) / HRAS/KRAS (ratio of KD value for HRAS to KD value for KRAS): GDP-bound HRAS wild-type vs GDP-bound KRAS wild-type
GDP-bound HRAS wild-type protein, sequence (P01112 whole entry): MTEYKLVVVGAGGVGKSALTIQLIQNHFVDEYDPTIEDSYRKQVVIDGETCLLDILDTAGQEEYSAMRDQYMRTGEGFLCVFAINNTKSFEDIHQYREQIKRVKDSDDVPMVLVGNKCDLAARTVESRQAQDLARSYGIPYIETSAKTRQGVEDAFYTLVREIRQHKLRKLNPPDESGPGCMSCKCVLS

[2] = molecular target: GDP-bound NRAS wild-type protein (Homo sapiens, UniProt P01111); test: Binding to NRAS by surface plasmon resonance (SPR), Single Cycle Kinetics; details: for NRAS/KRAS (ratio of KD value with respect to NRAS to KD value with respect to KRAS) / NRAS/KRAS (ratio of KD value for NRAS to KD value for KRAS): GDP-bound NRAS wild-type vs GDP-bound KRAS wild-type
GDP-bound NRAS wild-type protein, sequence (P01111 whole entry): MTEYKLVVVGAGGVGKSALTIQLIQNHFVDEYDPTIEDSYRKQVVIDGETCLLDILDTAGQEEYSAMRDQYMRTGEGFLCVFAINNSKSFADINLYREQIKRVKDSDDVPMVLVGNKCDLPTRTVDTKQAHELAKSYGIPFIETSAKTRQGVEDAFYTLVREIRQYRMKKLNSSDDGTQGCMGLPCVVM

CC[C@H](C)[C@@H]1NC(=O)[C@H](CC(C)C)N(C)C(=O)C[C@@H](C(=O)N2CCOCC2)N(C)C(=O)[C@H](C2CCCC2)N(C)C(=O)C2(CCC2)NC(=O)[C@@H]2CCCN2C(=O)[C@H](CCc2ccc(C(F)(F)F)c(Cl)c2)NC(=O)CN(C)C(=O)[C@H](Cc2ccc(F)cc2)N2CCCCC[C@@H](C2=O)N(C)C(=O)CN(C)C1=O [PP0967]
HRAS/KRAS (ratio of KD value with respect to HRAS to KD value with respect to KRAS) ([1]; KD ratio, SPR): B (a compound having 3 or more and less than 10 is denoted as B)
NRAS/KRAS (ratio of KD value with respect to NRAS to KD value with respect to KRAS) ([2]; KD ratio, SPR): B (a compound having 3 or more and less than 10 is denoted as B)

CCO[C@@H]1C[C@H]2C(=O)NC3(CCC3)C(=O)N(C)[C@@H](C3CCCC3)C(=O)N(C)[C@H](C(=O)N(C)CCOC)CC(=O)N(C)[C@@H](CC)C(=O)N[C@@H]([C@@H](C)CC)C(=O)N(C)CC(=O)N(C)[C@H]3C/C=C\CCN(C3=O)[C@@H](Cc3ccc(C(F)(F)F)cc3)C(=O)N(C)CC(=O)N[C@@H](CCc3cc(F)c(C(F)(F)F)c(F)c3)C(=O)N2C1 [PP1316]
HRAS/KRAS (ratio of KD value for GDP-bound HRAS wild-type protein to KD value for KRAS) ([1]; SPR, KD ratio class): A (a compound having 10 or more and less than 20 is denoted as A)
NRAS/KRAS (ratio of KD value for GDP-bound NRAS wild-type protein to KD value for KRAS) ([2]; SPR, KD ratio class): A (a compound having 10 or more and less than 20 is denoted as A)

CCO[C@@H]1C[C@H]2C(=O)NC3(CCC3)C(=O)N(C)[C@@H](C3CCCC3)C(=O)N(C)[C@H](C(=O)N3CCOCC3)CC(=O)N(C)[C@@H](CC3CCC3)C(=O)N[C@@H]([C@@H](C)CC)C(=O)N(C)CC(=O)N(C)[C@H]3CCCCN(C3=O)[C@@H](Cc3ccc(C(F)(F)F)cc3)C(=O)N(C)CC(=O)N[C@@H](CCc3cc(F)c(C(F)(F)F)c(F)c3)C(=O)N2C1 [PP0713]
HRAS/KRAS (ratio of KD value with respect to GDP-bound HRAS wild-type protein to KD value with respect to KRAS) ([1]; SPR): B (a compound having 3 or more and less than 10 is denoted as B)
NRAS/KRAS (ratio of KD value with respect to GDP-bound NRAS wild-type protein to KD value with respect to KRAS) ([2]; SPR): C (A compound having a KD ratio of 0.1 or more and less than 3 is denoted as C)

CCO[C@@H]1C[C@H]2C(=O)NC3(CCC3)C(=O)N(C)[C@@H](C3CCCC3)C(=O)N(C)[C@H](C(=O)N(C)C)CC(=O)N(C)[C@@H](CC3CCCC3)C(=O)N[C@@H]([C@@H](C)CC)C(=O)N(C)CC(=O)N(C)[C@H]3C/C=C\CCN(C3=O)[C@@H](Cc3ccc(C)cc3)C(=O)N(C)CC(=O)N[C@@H](CCc3ccc(C4CC4)c(C)c3)C(=O)N2C1 [PP2685]
HRAS/KRAS (ratio of KD value with respect to GDP-bound HRAS wild-type protein to KD value with respect to KRAS) ([1]; class symbols): A (a compound having 10 or more and less than 20 is denoted as A)
NRAS/KRAS (ratio of KD value with respect to GDP-bound NRAS wild-type protein to KD value with respect to KRAS) ([2]; class symbols): A (a compound having 10 or more and less than 20 is denoted as A)

CCCN1C(=O)CN(C)C(=O)[C@@H]2CCN2C(=O)[C@H]([C@@H](C)CC)NC(=O)[C@H](CC(C)C)N(C)C(=O)C[C@@H](C(=O)N2CCOCC2)N(C)C(=O)[C@H](C2CCCC2)N(C)C(=O)C2(COC2)NC(=O)[C@@H]2CCCN2C(=O)[C@H](CCc2cc(F)c(C(F)(F)F)c(F)c2)NC(=O)CN(C)C(=O)[C@@H]1Cc1ccc(C(F)(F)F)cc1 [PP0782] ([NMeL]I[Aze][Sar][NPrPhe(4-CF3)][Sar][hPhe(3,5-F2-4-CF3)]P[Ac4c(3-oxa)][NMeGly(cPent)][NMeD]-Morpholide; lactam N-11)
HRAS/KRAS (ratio of KD value with respect to GDP-bound HRAS wild-type protein to KD value with respect to KRAS) ([1]; SPR): B (a compound having 3 or more and less than 10 is denoted as B)
NRAS/KRAS (ratio of KD value with respect to GDP-bound NRAS wild-type protein to KD value with respect to KRAS) ([2]; SPR): B (a compound having 3 or more and less than 10 is denoted as B)

CC[C@H](C)[C@@H]1NC(=O)[C@H](C)N(C)C(=O)C[C@@H](C(=O)N(C)C)N(C)C(=O)[C@H](C2CCCC2)N(C)C(=O)C2(CCC2)NC(=O)[C@@H]2CCCN2C(=O)[C@H](CCc2cc(F)c(C(F)(F)F)c(F)c2)NC(=O)CN(C)C(=O)[C@H](Cc2ccc(C(F)(F)F)cc2)N2CCCCC[C@@H](C2=O)N(C)C(=O)CN(C)C1=O [PP0470]
HRAS/KRAS (ratio of KD value with respect to GDP-bound HRAS wild-type protein to KD value with respect to KRAS) ([1]; SPR): B (a compound having 3 or more and less than 10 is denoted as B)
NRAS/KRAS (ratio of KD value with respect to GDP-bound NRAS wild-type protein to KD value with respect to KRAS) ([2]; SPR): B (a compound having 3 or more and less than 10 is denoted as B)

CC[C@H](C)[C@@H]1NC(=O)[C@H](CC(C)C)N(C)C(=O)C[C@@H](C(=O)N(C)C)N(C)C(=O)[C@H](C2CCCC2)N(C)C(=O)C2(CC(C)(C)C2)NC(=O)[C@@H]2CC(F)(F)CN2C(=O)[C@H](CCc2cc(F)c(C(F)(F)F)c(F)c2)NC(=O)CN(C)C(=O)[C@H](Cc2ccc(C(F)(F)F)cc2)N2CC/C=C\C[C@@H](C2=O)N(C)C(=O)CN(C)C1=O [PP1715]
HRAS/KRAS (ratio of KD value for HRAS to KD value for KRAS) ([1]; KD ratio, SPR): A (a compound having 10 or more and less than 20 is denoted as A)
NRAS/KRAS (ratio of KD value for NRAS to KD value for KRAS) ([2]; KD ratio, SPR): AA (a compound having 20 or more is denoted as AA)

CC[C@H](C)[C@@H]1NC(=O)[C@H](CC(C)C)NC(=O)C[C@@H](C(=O)N2CCOCC2)N(C)C(=O)[C@H](C2CCCC2)N(C)C(=O)C2(CCCC2)NC(=O)[C@@H]2CCCN2C(=O)[C@H](CCc2cc(F)c(C(F)(F)F)c(F)c2)NC(=O)CN(C)C(=O)[C@H](Cc2ccc(C(F)(F)F)cc2)N2CCCC[C@@H](C2=O)N(C)C(=O)CN(C)C1=O [PP0590]
HRAS/KRAS (ratio of KD value with respect to GDP-bound HRAS wild-type protein to KD value with respect to KRAS) ([1]; SPR): B (a compound having 3 or more and less than 10 is denoted as B)
NRAS/KRAS (ratio of KD value with respect to GDP-bound NRAS wild-type protein to KD value with respect to KRAS) ([2]; SPR): C (A compound having a KD ratio of 0.1 or more and less than 3 is denoted as C)

CCC[C@H]1C(=O)N[C@@H]([C@@H](C)CC)C(=O)N2CCC[C@H]2C(=O)N(C)[C@H]2C/C=C\CCN(C2=O)[C@@H](CC2CCC(F)(F)CC2)C(=O)N(C)CC(=O)N[C@@H](CCc2ccc(C(F)(F)F)c(OC)c2)C(=O)N2C[C@@H](C)C[C@H]2C(=O)N(C)C2(CCC2)C(=O)N(C)[C@@H](C2CCCC2)C(=O)N(C)[C@H](C(=O)N(C)C)CC(=O)N1C [PP2380]
HRAS/KRAS (ratio of KD value with respect to HRAS to KD value with respect to KRAS) ([1]; SPR): A (a compound having 10 or more and less than 20 is denoted as A)
NRAS/KRAS (ratio of KD value with respect to NRAS to KD value with respect to KRAS) ([2]; SPR): A (a compound having 10 or more and less than 20 is denoted as A)

CC[C@H](C)[C@@H]1NC(=O)[C@H](CC)N(C)C(=O)C[C@@H](C(=O)N(C)C)N(C)C(=O)[C@H](C2CCCC2)N(C)C(=O)C2(CCC2)NC(=O)[C@@H]2C[C@@H](C(F)(F)F)CN2C(=O)[C@H](CCc2cc(F)c(C(F)(F)F)c(F)c2)NC(=O)CN(C)C(=O)[C@H](Cc2ccc(C(F)(F)F)cc2)N2CC/C=C\C[C@@H](C2=O)N(C)C(=O)CN(C)C1=O [PP1133]
HRAS/KRAS (ratio of KD value with respect to HRAS to KD value with respect to KRAS) ([1]; KD ratio, SPR): A (a compound having 10 or more and less than 20 is denoted as A)
NRAS/KRAS (ratio of KD value with respect to NRAS to KD value with respect to KRAS) ([2]; KD ratio, SPR): A (a compound having 10 or more and less than 20 is denoted as A)

CCO[C@@H]1C[C@H]2C(=O)NC3(CCC3)C(=O)N(C)[C@@H](C3CCCC3)C(=O)N(C)[C@H](C(=O)N(C)C)CC(=O)N(C)[C@@H](CC(C)C)C(=O)N[C@@H]([C@@H](C)CC)C(=O)N(C)CC(=O)N(C)[C@H]3CCCCN(C3=O)[C@@H](Cc3ccc(C(F)(F)F)cc3)C(=O)N(C)CC(=O)N[C@@H](CCc3cc(F)c(C(F)(F)F)c(F)c3)C(=O)N2C1 [PP0580]
HRAS/KRAS (ratio of KD value with respect to GDP-bound HRAS wild-type protein to KD value with respect to KRAS) ([1]; SPR): C (A compound having a KD ratio of 0.1 or more and less than 3 is denoted as C)
NRAS/KRAS (ratio of KD value with respect to GDP-bound NRAS wild-type protein to KD value with respect to KRAS) ([2]; SPR): C (A compound having a KD ratio of 0.1 or more and less than 3 is denoted as C)

CC[C@H](C)[C@@H]1NC(=O)[C@H](CC(C)C)N(C)C(=O)C[C@@H](C(=O)N(C)C)N(C)C(=O)[C@H](C2CCCC2)N(C)C(=O)C2(CCC2)NC(=O)[C@@H]2C[C@H](C)CN2C(=O)[C@H](CCc2ccc(C(F)(F)F)c(OC)c2)NC(=O)CN(C)C(=O)[C@H](Cc2ccc(C)cc2)N2CC/C=C\C[C@@H](C2=O)N(C)C(=O)CN(C)C1=O [PP1865]
HRAS/KRAS (ratio of KD value for HRAS to KD value for KRAS) ([1]; KD ratio, SPR): B (a compound having 3 or more and less than 10 is denoted as B)
NRAS/KRAS (ratio of KD value for NRAS to KD value for KRAS) ([2]; KD ratio, SPR): A (a compound having 10 or more and less than 20 is denoted as A)

CCCOC[C@H]1C(=O)N[C@@H]([C@@H](C)CC)C(=O)N(C)CC(=O)N(C)[C@H]2C/C=C\CCN(C2=O)[C@@H](Cc2ccc(C)cc2)C(=O)N(C)CC(=O)N[C@@H](CCc2ccc(C(F)(F)F)c(OC)c2)C(=O)N2C[C@@H](C)C[C@H]2C(=O)NC2(CC(C)(C)C2)C(=O)N(C)[C@@H](C2CCCC2)C(=O)N(C)[C@H](C(=O)N(C)C)CC(=O)N1C [PP2447]
HRAS/KRAS (ratio of KD value with respect to HRAS to KD value with respect to KRAS) ([1]; SPR): B (a compound having 3 or more and less than 10 is denoted as B)
NRAS/KRAS (ratio of KD value with respect to NRAS to KD value with respect to KRAS) ([2]; SPR): A (a compound having 10 or more and less than 20 is denoted as A)

CCO[C@@H]1C[C@H]2C(=O)NC3(CCC3)C(=O)N(C)[C@@H](C3CCCC3)C(=O)N(C)[C@H](C(=O)N(C)CC)CC(=O)N(C)[C@@H](CC(C)C)C(=O)N[C@@H]([C@@H](C)CC)C(=O)N(C)CC(=O)N(C)[C@H]3C/C=C\CCN(C3=O)[C@@H](Cc3ccc(C(F)(F)F)cc3)C(=O)N(C)CC(=O)N[C@@H](CCc3ccc(C(F)(F)F)c(OC)c3)C(=O)N2C1 [PP2846]
HRAS/KRAS (ratio of KD value with respect to GDP-bound HRAS wild-type protein to KD value with respect to KRAS) ([1]; class symbols): A (a compound having 10 or more and less than 20 is denoted as A)
NRAS/KRAS (ratio of KD value with respect to GDP-bound NRAS wild-type protein to KD value with respect to KRAS) ([2]; class symbols): AA (a compound having 20 or more is denoted as AA)
